From PubChem BioAssay AID1963860 (Molecular Pharmacology Branch, DTP, NCI, 2024)

System: CN0375-F725-PDC KRAS spheroid viability
Assay: Anticancer human tumor CN0375-F725-PDC patient-derived colon carcinoma cell line growth inhibition [KRAS2]
Conditions: spheroids with HUVEC and MSC; for viability, T/C: stronger effect = lower value
Summary of the method: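 KRAS-mutant tumor cells were grown as spheroids with HUVEC endothelial cells and human MSCs as stroma. Targeted agents were tested alone and with KRAS pathway inhibitors. Doses started at or near clinical Cmax, or 10 microM, descending half-log.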

[1] = curve of first compound, second compound 0.1 µM
[2] = curve of first compound, second compound 0.316 µM
[3] = curve of first compound, second compound 1 µM
[4] = curve of first compound, second compound 3.16 µM
[5] = curve of first compound, second compound 10 µM
[6] = second compound 0.1 µM, first compound 0.000316 µM
[7] = second compound 0.1 µM, first compound 0.001 µM
[8] = second compound 0.1 µM, first compound 0.00316 µM
[9] = second compound 0.1 µM, first compound 0.01 µM
[10] = second compound 0.1 µM, first compound 0.0316 µM
[11] = second compound 0.1 µM, first compound 0.1 µM
[12] = second compound 0.316 µM, first compound 0.000316 µM
[13] = second compound 0.316 µM, first compound 0.001 µM
[14] = second compound 0.316 µM, first compound 0.00316 µM
[15] = second compound 0.316 µM, first compound 0.01 µM
[16] = second compound 0.316 µM, first compound 0.0316 µM
[17] = second compound 0.316 µM, first compound 0.1 µM
[18] = second compound 1 µM, first compound 0.000316 µM
[19] = second compound 1 µM, first compound 0.001 µM
[20] = second compound 1 µM, first compound 0.00316 µM
[21] = second compound 1 µM, first compound 0.01 µM
[22] = second compound 1 µM, first compound 0.0316 µM
[23] = second compound 1 µM, first compound 0.1 µM
[24] = second compound 3.16 µM, first compound 0.000316 µM
[25] = second compound 3.16 µM, first compound 0.001 µM
[26] = second compound 3.16 µM, first compound 0.00316 µM
[27] = second compound 3.16 µM, first compound 0.01 µM
[28] = second compound 3.16 µM, first compound 0.0316 µM
[29] = second compound 3.16 µM, first compound 0.1 µM
[30] = second compound 10 µM, first compound 0.000316 µM
[31] = second compound 10 µM, first compound 0.001 µM
[32] = second compound 10 µM, first compound 0.00316 µM
[33] = second compound 10 µM, first compound 0.01 µM
[34] = second compound 10 µM, first compound 0.0316 µM
[35] = second compound 10 µM, first compound 0.1 µM
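Also: spheroids exposed to agents for 7 days.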

Question: Which results are given for `Cn1ncnc1[C@H]1c2n[nH]c(=O)c3cc(F)cc(c23)N[C@@H]1c1ccc(F)cc1` + COc1cc2nc(C)nc(NC(C)c3cc(N)cc(C(F)(F)F)c3)c2cc1OC1CCOC1?
Answer: IC50 [1]: > 100 nM; IC50 [2]: > 100 nM; IC50 [3]: > 100 nM; IC50 [4]: > 100 nM; IC50 [5]: < 0.316 nM; viability, T/C [6]: 103%; viability, T/C [7]: 98.8%; viability, T/C [8]: 96.7%; viability, T/C [9]: 97.9%; viability, T/C [10]: 98%; viability, T/C [11]: 94.9%; viability, T/C [12]: 97.2%; viability, T/C [13]: 104%; viability, T/C [14]: 94.2%; viability, T/C [15]: 92.5%; viability, T/C [16]: 96.4%; viability, T/C [17]: 93.1%; viability, T/C [18]: 97.7%; viability, T/C [19]: 105%; viability, T/C [20]: 86.9%; viability, T/C [21]: 86.7%; viability, T/C [22]: 88.8%; viability, T/C [23]: 86.4%; viability, T/C [24]: 88.6%; viability, T/C [25]: 94%; viability, T/C [26]: 84.1%; viability, T/C [27]: 76.8%; viability, T/C [28]: 79.4%; viability, T/C [29]: 76.8%; viability, T/C [30]: 11.7%; viability, T/C [31]: 14%; viability, T/C [32]: 6.8%; viability, T/C [33]: 13.3%; viability, T/C [34]: 5.32%; viability, T/C [35]: 10.4%

Question: For `CC(C)NCC(C(=O)N1CCN(c2ncnc3c2C(C)CC3O)CC1)c1ccc(Cl)cc1` (stereo unspecified) + COc1cc2nc(C)nc(NC(C)c3cc(N)cc(C(F)(F)F)c3)c2cc1OC1CCOC1, which IC50 [1] is on record?
Answer: > 10000 nM

Question: And the IC50 [2]?
Answer: > 10000 nM

Question: And the IC50 [3]?
Answer: > 10000 nM

Question: And the IC50 [4]?
Answer: > 10000 nM

Question: What about the IC50 [5] of the same compound?
Answer: < 31.6 nM

Question: And the viability, T/C [10]?
Answer: 100%

Question: What about the viability, T/C [11] of the same compound?
Answer: 100%

Question: What about the viability, T/C (second compound 0.1 µM, first compound 0.316 µM) of the same compound?
Answer: 87.7%

Question: What about the viability, T/C (second compound 0.1 µM, first compound 1 µM) of the same compound?
Answer: 88.3%

Question: And the viability, T/C (second compound 0.1 µM, first compound 3.16 µM)?
Answer: 84.8%

Question: What about the viability, T/C (second compound 0.1 µM, first compound 10 µM) of the same compound?
Answer: 74.4%

Question: What about the viability, T/C [16] of the same compound?
Answer: 95.5%

Question: What about the viability, T/C [17] of the same compound?
Answer: 97.3%

Question: And the viability, T/C (second compound 0.316 µM, first compound 0.316 µM)?
Answer: 88.5%

Question: And the viability, T/C (second compound 0.316 µM, first compound 1 µM)?
Answer: 85.1%

Question: And the viability, T/C (second compound 0.316 µM, first compound 3.16 µM)?
Answer: 81.3%

Question: And the viability, T/C (second compound 0.316 µM, first compound 10 µM)?
Answer: 71.1%

Question: And the viability, T/C [22]?
Answer: 93.6%

Question: What about the viability, T/C [23] of the same compound?
Answer: 93.3%

Question: And the viability, T/C (second compound 1 µM, first compound 0.316 µM)?
Answer: 85.2%

Question: And the viability, T/C (second compound 1 µM, first compound 1 µM)?
Answer: 80.7%

Question: And the viability, T/C (second compound 1 µM, first compound 3.16 µM)?
Answer: 74.4%

Question: What about the viability, T/C (second compound 1 µM, first compound 10 µM) of the same compound?
Answer: 65.5%

Question: And the viability, T/C [28]?
Answer: 88.5%

Question: And the viability, T/C [29]?
Answer: 81.7%

Question: And the viability, T/C (second compound 3.16 µM, first compound 0.316 µM)?
Answer: 76.9%

Question: What about the viability, T/C (second compound 3.16 µM, first compound 1 µM) of the same compound?
Answer: 66.9%

Question: What about the viability, T/C (second compound 3.16 µM, first compound 3.16 µM) of the same compound?
Answer: 62.4%

Question: And the viability, T/C (second compound 3.16 µM, first compound 10 µM)?
Answer: 50.5%

Question: What about the viability, T/C [34] of the same compound?
Answer: 16.1%

Question: What about the viability, T/C [35] of the same compound?
Answer: 18.6%

Question: What about the viability, T/C (second compound 10 µM, first compound 0.316 µM) of the same compound?
Answer: 14.8%

Question: What about the viability, T/C (second compound 10 µM, first compound 1 µM) of the same compound?
Answer: 10.8%

Question: What about the viability, T/C (second compound 10 µM, first compound 3.16 µM) of the same compound?
Answer: 8.1%

Question: What about the viability, T/C (second compound 10 µM, first compound 10 µM) of the same compound?
Answer: 5.67%

Question: Which results are given for `CC(=O)Nc1cccc(-n2c(=O)n(C3CC3)c(=O)c3c(Nc4ccc(I)cc4F)n(C)c(=O)c(C)c32)c1` + CC1OCC2(CCN(c3cnc(Sc4ccnc(N)c4Cl)c(N)n3)CC2)C1N?
Answer: IC50 [1]: 4.59 nM; IC50 [2]: 2.09 nM; IC50 [3]: 1.61 nM; IC50 [4]: 0.826 nM; IC50 [5]: 0.257 nM; viability, T/C (second compound 0.1 µM, first compound 0.0001 µM): 90.5%; viability, T/C [6]: 79.2%; viability, T/C [7]: 64%; viability, T/C [8]: 54.7%; viability, T/C [9]: 42.8%; viability, T/C [10]: 30.5%; viability, T/C (second compound 0.316 µM, first compound 0.0001 µM): 84.5%; viability, T/C [12]: 75.8%; viability, T/C [13]: 57.5%; viability, T/C [14]: 44.9%; viability, T/C [15]: 39.2%; viability, T/C [16]: 32.5%; viability, T/C (second compound 1 µM, first compound 0.0001 µM): 78.4%; viability, T/C [18]: 66.8%; viability, T/C [19]: 55.1%; viability, T/C [20]: 42.5%; viability, T/C [21]: 35%; viability, T/C [22]: 27.4%; viability, T/C (second compound 3.16 µM, first compound 0.0001 µM): 66.5%; viability, T/C [24]: 65.8%; viability, T/C [25]: 45.2%; viability, T/C [26]: 36.2%; viability, T/C [27]: 31.4%; viability, T/C [28]: 27.2%; viability, T/C (second compound 10 µM, first compound 0.0001 µM): 63.1%; viability, T/C [30]: 46.4%; viability, T/C [31]: 37.6%; viability, T/C [32]: 30%; viability, T/C [33]: 23.5%; viability, T/C [34]: 24.6%

Question: Which results are given for `Cn1ncnc1[C@H]1c2n[nH]c(=O)c3cc(F)cc(c23)N[C@@H]1c1ccc(F)cc1` + CNCc1ccccc1-c1csc(C(C)Nc2nc(C)nc3cc(OC)c(OC)cc23)c1?
Answer: IC50 [1]: > 100 nM; IC50 [2]: > 100 nM; IC50 [3]: 0.634 nM; IC50 [4]: < 0.316 nM; IC50 [5]: < 0.316 nM; viability, T/C [6]: 107%; viability, T/C [7]: 106%; viability, T/C [8]: 97%; viability, T/C [9]: 95.7%; viability, T/C [10]: 95.4%; viability, T/C [11]: 93.6%; viability, T/C [12]: 100%; viability, T/C [13]: 101%; viability, T/C [14]: 94.5%; viability, T/C [15]: 86.9%; viability, T/C [16]: 91%; viability, T/C [17]: 88.2%; viability, T/C [18]: 54.1%; viability, T/C [19]: 46.2%; viability, T/C [20]: 47.8%; viability, T/C [21]: 41.5%; viability, T/C [22]: 39.4%; viability, T/C [23]: 40.6%; viability, T/C [24]: 0.23%; viability, T/C [25]: 0.33%; viability, T/C [26]: 0.31%; viability, T/C [27]: 0.28%; viability, T/C [28]: 0.25%; viability, T/C [29]: 0.42%; viability, T/C [30]: 0.14%; viability, T/C [31]: 0.33%; viability, T/C [32]: 0.13%; viability, T/C [33]: 0.15%; viability, T/C [34]: 0.13%; viability, T/C [35]: 0.23%

Question: Which viability, T/C (compound 0.1 µM) does the source give for `COc1cc2nc(C)nc(NC(C)c3cc(N)cc(C(F)(F)F)c3)c2cc1OC1CCOC1` (stereo unspecified) here?
Answer: 96.2% [middle of 17 runs]

Question: And the viability, T/C (compound 0.316 µM)?
Answer: 92.3% [middle of 17 runs]

Question: What about the viability, T/C (compound 1 µM) of the same compound?
Answer: 90.5% [middle of 17 runs]

Question: And the viability, T/C (compound 3.16 µM)?
Answer: 83.4% [middle of 17 runs]

Question: What about the IC50 (compound alone, run of 08/26/2021) of the same compound?
Answer: 5.77 µM [middle of 4 runs]

Question: And the IC50 (compound alone, run of 09/02/2021)?
Answer: 5.43 µM [middle of 6 runs]
